Reference: patent US20230234920A1, “Azirine Containing Compounds as Anti-Angiogenesis Agents and a Process for the Preparation Thereof” (COUNCIL OF SCIENTIFIC & INDUSTRIAL RESEARCH, priority 2020, published 2023)

Assays:
HUVECs [1] = experiment: Capillary-like tube formation assay (tubulogenesis); assay type: cell-based, human
Outline: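 HUVECs seeded on Matrigel (regular or reduced growth factor) in incomplete ECM basal medium, treated with compound for 6 h; VEGF 50 ng/mL positive and sunitinib 50 nM negative controls. Calcein-AM-stained tubules imaged at 10× and tubule length expressed as % of 0.1% DMSO vehicle.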

HUVECs protein lysate = experiment: Drug Affinity Receptor Target (DART) analysis; assay type: binding, human; conditions: 10 mM
Description: HUVECs with confluency of 80-85% in 100 mm dish were trypsinised and the media was removed and washed twice with 1×PBS. These cells were lysed with lysis buffer at 4° C. Control and treatment group with […] of protein were incubated with vehicle and Compound 1 at a concentration of 10 mM for 15-30 mins at RT with gentle shaking. Then different proteases like thermolysin (10 μg/15 μL) and pronase at […] were added to both the control and treatment groups for 5-10 mins at RT. Digestion was stopped by adding protease inhibitor (20×) at specific interval and allowed to incubate at 4° C. for 10 mins. 6×SDS-PAGE loading dye was added to all the respective samples and heated at 70° C. for 10 mins. SDS-PAGE was performed for the given control and treatment group samples and then the gel was stained with 0.05% Coomassie Brilliant Blue (CBB-R250). After destaining the gel, bands of different molecular weight of treatment and control groups were excised off from the gel and further employed for the protein sequence analysis through LC/MS-MS (Liquid chromatography/Mass spectroscopy).

ECs = experiment: Post tubule formation assay (disruption of preformed tubules); assay type: cell-based, human; conditions: treatment of already formed tubule
Description: FIG. 3 represents effect of Compound 1 on post tubule formation by ECs. (A) ECs were incubated with indicated different concentrations of compound 1 along with VEGF (50 ng/mL) and sunitinib (50 nM) after 6 h of treatment to the already formed tubule. Post treatment photographs were taken at using an inverted microscope at 10×magnification.

HUVECs [2] = experiment: 3D angiogenesis assay (cytodex beads in fibrin matrix); assay type: cell-based, human
Description: (A) ECs were seeded on fibrinogen matrix and were treated with sunitinib and compound 1 at indicated concentrations. Post 5 days of incubation pictures were taken at 10× using inverted microscope. (B) Tube length was quantified using Leica QWin software and graph was plotted taking control (0.01% DMSO) treated cells. Data are represented as mean±SEM with significant difference from control at *p<0.05, **p<0.01 and ***p<0.001.
Anti-angiogenic effect of Compound 1 was further validated by 3D angiogenesis assay (FIG. 5).
Endothelial cells (ECs) were trypsinized and then coated on cytodex beads at the rate of 1500 cells per bead in 5% DMEM medium at 37° C. for 4 h by rotating it gently on IP rotor. Fibrinogen (2 mg/mL) and Aprotonin (40 U/μL) were added to the ECs coated beads and this was subsequently added to the 96 well plate pre-coated with […] (10 U/μL) and incubated for 15 min. Vehicle control in 2.5% DMEM media with different doses of Compound 1 (500 nM, 250 nM, 125 nM and 75 nM) were used to observe the anti-angiogenic effect of Compound 1 on 3D angiogenesis pattern. Post 3 days of incubation the results were observed and photographs were taken under inverted microscope (Olympus, Centre Valley, Pa., USA) and relative tubule lengths were measured using Leica Q-Win software version 3.5.1. (Leica Microsystems, Switzerland).

endothelial cell = experiment: Protein angiogenesis array; assay type: cell-based; conditions: 260 nM
Description: (A) Serum-starved HUVECs were treated with control (0.1% DMSO), sunitinib and Compound 1 at a given concentrations and then incubated for 6 h. The expression level of phospho-VEGFR2 and GAPDH (housekeeping protein) was analyzed by immunoblotting. (B) Blots were quantified with Image-J software and the bar graphs represent the relative density of phospho-VEGFR2 normalized with GAPDH and the data are represented as mean±SEM with significant difference compared with control at *p<0.05. (D) Protein angiogenesis array showing up-regulation of anti-angiogenic protein and down-regulation of pro-angiogenic proteins on endothelial cell treated with Compound 1 at 260 nM.

CCOC(=O)C1N=C1CCc1ccc(OC)cc1 (racemic) [Compound 1, Ethyl 3-(4-methoxyphenethyl)-2H-azirine-2-carboxylate] was tested, and the “anti-angiogenic activity on primary tubulogenesis screening” value (HUVECs [1]) was 75 nM, the tubule formation (HUVECs [1]; 25 nM, 6 h) was “complete angiogenesis” and the “tubule formation as compared to control” value (HUVECs [1]; 75 nM, 6 h) was 50%. The tubule formation (HUVECs [1]; 100 nM combined with sunitinib at 20 nM, 6 h) was “approximately 15%”, the tubule formation (HUVECs [1]; 250 nM till 125 nM, 6 h) was “light increase in the tubule formation” and the tubulogenesis inhibition (HUVECs [1]; 10 μM till 500 nM, 6 h) was “complete tubulogenesis inhibition”. For the same compound, the IC50 (HUVECs [1]; Homo sapiens, HUVEC, endothelial tubule network assay, anti-angiogenic activity, read-out: IC50 value) was 75 nM, the remarks (HUVECs [1]; remark on IC50 versus sunitinib) was “comparable to sunitinib” and the “toxic effect on the cells” value (HUVECs [1]; till 500 nM, 6 h) was “no toxic effect”. The “protection of protein band against protease digestion” value (HUVECs protein lysate) was “Intact protein band was observed”, the “disruption of preformed tubules” value (ECs) was “could not be able to disrupt the preformed tubules” and the tubule formation (HUVECs [2]; 75 nM) was 100%. The “tubulogenesis in 3D angiogenesis” value (HUVECs [2]; 500 nM, 250 nM, 125 nM and 75 nM vs control) was “tubulogenesis inhibitory effect” and the “expression of anti-angiogenic and angiogenic proteins” value (endothelial cell) was “significantly increased the protein expression of anti-angiogenic proteins and decreased the expression of angiogenic proteins”.
